For eleven molecules, GI50 results are on record in patent publication US12673945B2, “3-((8-((1H-pyrazol-4-yl)amino)imidazo[1,2-a]pyridin-3-yl)ethinyl)-n-phenylbenzamide derivative, method for preparing same, and pharmaceutical composition containing same as active ingredient for prevention or treatment of cancer” (DAEGU-GYEONGBUK MEDICAL INNOVATION FOUNDATION, priority 2020, dated 2026).

The GI50 is the concentration giving 50% growth inhibition.

Holding throughout (format): cell-based
One test relates to Parental (Ba/F3). In words: Ba/F3 cell proliferation inhibition. The settings on record: BaF3; 72 hours, Cell Counting Kit-8. In a few lines:
(§1)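 Parental and T315I-Bcr-Abl Ba/F3 cells, 1×10^4 per well, exposed 72 h at 37 °C to nine 3-fold dilutions, final 0 to 10 μM. Viability by CCK-8 after 2 h, absorbance 450 nm; GI50 fitted from percent of vehicle-treated cells.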
(In general: Formazan colour is commonly taken as a measure of viable cells.)

Another test relates to T315I-Bcr-Abl (Ba/F3). In words: Ba/F3 cell proliferation inhibition. The settings on record: BaF3; 72 hours, Cell Counting Kit-8. In a few lines: as §1
The next test relates to KOPM28 cells. The experiment in a line: human CML cell proliferation inhibition. The settings on record: 72 hours, Cell Counting Kit-8. A digest of the protocol: (§2)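 Seed 1×10^4 cells/well; add compound, 9 concentrations by 5-fold dilution, final 0–10 μM, or DMSO; incubate 72 h, 37 °C, CO2; add CCK-8 for 2 h; read A450; normalise to vehicle; fit GI50.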
The subject of the next test is T315I-KOPM28 cells. The experiment in a line: human CML cell proliferation inhibition. The settings on record: 72 hours, Cell Counting Kit-8. In a few lines:
as §2

For the next test, the system named is T315I-TCCS cells. In words: human CML cell proliferation inhibition. Particulars: 72 hours, Cell Counting Kit-8. A digest of the protocol: as §2
Another test has as its system TCCS cells. The experiment in a line: human CML cell proliferation inhibition. The settings on record: 72 hours, Cell Counting Kit-8. A digest of the protocol: as §2

A value given as a limit tells only on which side of the number the result lay.

With `Cc1cc(F)c(C(=O)Nc2cc(Oc3ccncc3)cc(C(C)(C)C#N)c2)cc1C#Cc1cnc2c(Nc3cn[nH]c3)cccn12` [Example 83, 5-((8-((1H-pyrazol-4-yl)amino)imidazo[1,2-a]pyridin-3-yl)ethynyl)-N-(3-(2-cyanopropan-2-yl)-5-(pyridin-4-yloxy)phenyl)-2-fluoro-4-methylbenzamide], the GI50 in the test on Parental (Ba/F3) is 0.5 to 5 µM; in the test with T315I-Bcr-Abl (Ba/F3), < 50 nM; with KOPM28 cells, < 10 nM; in the test with T315I-KOPM28 cells, 100 nM; in the test with T315I-TCCS cells it was 100 nM; in the test on TCCS cells it was < 10 nM.

For `Cc1cc(F)c(C(=O)Nc2cc(CN3CCN(C)CC3)cc(C(C)(C)C#N)c2)cc1C#Cc1cnc2c(Nc3cn[nH]c3)cccn12` [Example 84, 5-((8-((1H-pyrazol-4-yl)amino)imidazo[1,2-a]pyridin-3-yl)ethynyl)-N-(3-(2-cyanopropan-2-yl)-5-((4-methylpiperazin-1-yl)methyl)phenyl)-2-fluoro-4-methylbenzamide], the 50% growth inhibitory concentration (GI50) in the test on Parental (Ba/F3) is 0.5 to 5 µM; in the test with T315I-Bcr-Abl (Ba/F3) it was 50 to 500 nM; in the test on KOPM28 cells, < 10 nM; with T315I-KOPM28 cells, > 100 nM; with T315I-TCCS cells, 100 nM; in the test on TCCS cells, < 10 nM.

On to `Cc1cc(F)c(C(=O)Nc2cc(CN3CCN(CCO)CC3)cc(C(C)(C)C#N)c2)cc1C#Cc1cnc2c(Nc3cn[nH]c3)cccn12` [Example 86, 5-((8-((1H-pyrazol-4-yl)amino)imidazo[1,2-a]pyridin-3-yl)ethynyl)-N-(3-(2-cyanopropan-2-yl)-5-((4-(2-hydroxyethyl)piperazin-1-yl)methyl)phenyl)-2-fluoro-4-methylbenzamide], for which the concentration for 50% growth inhibition (GI50) in the test on Parental (Ba/F3) is 0.5 to 5 µM; in the test with T315I-Bcr-Abl (Ba/F3) it was < 50 nM; in the test on KOPM28 cells it was < 10 nM; in the test with T315I-KOPM28 cells, 100 nM; in the test on T315I-TCCS cells, 100 nM; with TCCS cells, < 10 nM.

In the case of `Cc1cc(F)c(C(=O)Nc2ccc(CN3CCC(N(C)C)C3)c(C(C)(C)C#N)c2)cc1C#Cc1cnc2c(Nc3cnn(C)c3)cccn12` (stereo not drawn) [Example 41, N-(3-(2-cyanopropan-2-yl)-4-((3-(dimethylamino)pyrrolidin-1-yl)methyl)phenyl)-2-fluoro-4-methyl-5-((8-((1-methyl-1H-pyrazol-4-yl)amino)imidazo[1,2-a]pyridin-3-yl)ethynyl)benzamide], the GI50 is 0.5 to 5 µM with Parental (Ba/F3); 50 to 500 nM in the test on T315I-Bcr-Abl (Ba/F3); < 10 nM with KOPM28 cells; > 100 nM with T315I-KOPM28 cells; > 100 nM with T315I-TCCS cells; < 10 nM in the test on TCCS cells.

For the molecule `Cc1cc(F)c(C(=O)Nc2cc(-c3ccncc3)cc(C(F)(F)F)c2)cc1C#Cc1cnc2c(Nc3cnn(C)c3)cccn12` [Example 52, 2-fluoro-4-methyl-5-((8-((1-methyl-1H-pyrazol-4-yl)amino)imidazo[1,2-a]pyridin-3-yl)ethynyl)-N-(3-(pyridin-4-yl)-5-(trifluoromethyl)phenyl)benzamide], the 50% growth inhibitory concentration (GI50) with Parental (Ba/F3) was > 5 µM; in the test on T315I-Bcr-Abl (Ba/F3), 50 to 500 nM; in the test on KOPM28 cells it was < 10 nM; in the test on T315I-KOPM28 cells, 100 nM; with T315I-TCCS cells it was 100 nM; in the test with TCCS cells, < 10 nM.

Regarding `Cc1cc(F)c(C(=O)Nc2cc(CN3CCN(C)C(=O)C3)cc(C(F)(F)F)c2)cc1C#Cc1cnc2c(Nc3cn[nH]c3)cccn12` [Example 107, 5-((8-((1H-pyrazol-4-yl)amino)imidazo[1,2-a]pyridin-3-yl)ethynyl)-2-fluoro-4-methyl-N-(3-((4-methyl-3-oxopiperazin-1-yl)methyl)-5-(trifluoromethyl)phenyl)benzamide], the GI50 is 0.5 to 5 µM in the test with Parental (Ba/F3); 50 to 500 nM with T315I-Bcr-Abl (Ba/F3); < 10 nM with KOPM28 cells; > 100 nM with T315I-KOPM28 cells; 100 nM in the test on T315I-TCCS cells; < 10 nM in the test on TCCS cells.

On to `Cc1cc(F)c(C(=O)Nc2ccc(CN3CCN(CCO)CC3)c(C(C)(C)C#N)c2)cc1C#Cc1cnc2c(Nc3cnn(C)c3)cccn12` [Example 43, N-(3-(2-cyanopropan-2-yl)-4-((4-(2-hydroxyethyl)piperazin-1-yl)methyl)phenyl)-2-fluoro-4-methyl-5-((8-((1-methyl-1H-pyrazol-4-yl)amino)imidazo[1,2-a]pyridin-3-yl)ethynyl)benzamide], for which the GI50 with Parental (Ba/F3) was 0.5 to 5 µM; with T315I-Bcr-Abl (Ba/F3), 50 to 500 nM; with KOPM28 cells, < 10 nM; in the test with T315I-KOPM28 cells it was > 100 nM; in the test on T315I-TCCS cells, 100 nM; in the test on TCCS cells it was < 10 nM.

`Cc1cc(F)c(C(=O)Nc2ccc(Cn3cncn3)c(C(F)(F)F)c2)cc1C#Cc1cnc2c(Nc3cnn(C)c3)cccn12` [Example 64, N-(4-((1H-1,2,4-triazol-1-yl)methyl)-3-(trifluoromethyl)phenyl)-2-fluoro-4-methyl-5-((8-((1-methyl-1H-pyrazol-4-yl)amino)imidazo[1,2-a]pyridin-3-yl)ethynyl)benzamide]: the GI50 in the test with Parental (Ba/F3) is > 5 µM; in the test on T315I-Bcr-Abl (Ba/F3) it was 50 to 500 nM; in the test with KOPM28 cells, < 10 nM; in the test on T315I-KOPM28 cells, > 100 nM; with T315I-TCCS cells, 100 nM; in the test with TCCS cells, < 10 nM.

Take `Cc1cc(Cl)c(C(=O)Nc2cc(CN3CCN(CCO)CC3)cc(C(C)(C)C#N)c2)cc1C#Cc1cnc2c(Nc3cnn(C)c3)cccn12` [Example 16, 2-chloro-N-(3-(2-cyanopropan-2-yl)-5-((4-(2-hydroxyethyl)piperazin-1-yl)methyl)phenyl)-4-methyl-5-((8-((1-methyl-1H-pyrazol-4-yl)amino)imidazo[1,2-a]pyridin-3-yl)ethynyl)benzamide]: the GI50 in the test on Parental (Ba/F3) was > 5 µM; in the test on T315I-Bcr-Abl (Ba/F3), 50 to 500 nM; with KOPM28 cells it was < 10 nM; in the test on T315I-KOPM28 cells, 100 nM; with T315I-TCCS cells it was 100 nM; in the test on TCCS cells it was < 10 nM.

Turning to `Cc1cc(F)c(C(=O)Nc2cc(N3CCCN(C)CC3)cc(C(C)(C)C#N)c2)cc1C#Cc1cnc2c(Nc3cnn(C)c3)cccn12` [Example 21, N-(3-(2-cyanopropan-2-yl)-5-(4-methyl-1,4-diazepan-1-yl)phenyl)-2-fluoro-4-methyl-5-((8-((1-methyl-1H-pyrazol-4-yl)amino)imidazo[1,2-a]pyridin-3-yl)ethynyl)benzamide], the 50% growth inhibitory concentration (GI50) was 0.5 to 5 µM in the test with Parental (Ba/F3); 50 to 500 nM in the test on T315I-Bcr-Abl (Ba/F3); < 10 nM with KOPM28 cells; > 100 nM in the test on T315I-KOPM28 cells; 100 nM with T315I-TCCS cells; < 10 nM in the test on TCCS cells.

Consider `Cc1cc(F)c(C(=O)Nc2cc(-c3cccnc3)cc(C(F)(F)F)c2)cc1C#Cc1cnc2c(Nc3cnn(C)c3)cccn12` [Example 53, 2-fluoro-4-methyl-5-((8-((1-methyl-1H-pyrazol-4-yl)amino)imidazo[1,2-a]pyridin-3-yl)ethynyl)-N-(3-(pyridin-3-yl)-5-(trifluoromethyl)phenyl)benzamide], for which the GI50 in the test with Parental (Ba/F3) is > 5 µM; with T315I-Bcr-Abl (Ba/F3) it was 50 to 500 nM; in the test on KOPM28 cells it was < 10 nM; with T315I-KOPM28 cells, > 100 nM; in the test with T315I-TCCS cells it was 100 nM; in the test with TCCS cells, < 10 nM.
